In patent US8562998B2, “Targeting of antigen presenting cells with immunonanotherapeutics” (President and Fellows of Harvard College, priority 2008, dated 2013):

Test system: anti-nicotine IgG
Assay: Anti-nicotine IgG titers in immunized mice (ELISA)
Format: in vivo, C57BL6 mice
Settings: immunized day 0, boosted after 2, 4 and 8 weeks

For CN1CCCC1c1cccnc1 (stereo not shown) [free nicotine, nicotine], the “production of nicotine antibodies” value was “does not elicit the production of nicotine antibodies”.
